Results taken from patent publication US20230085307A1, “PYRIDAZINONE COMPOUND AND HERBICIDE” (NISSAN CHEMICAL CORPORATION, priority 2019, published 2023).

Tests used:
late watergrass = assay: Test Example 1: herbicidal activity, application before weed generation under submerged conditions (Table 16, symbol A); assay type: in vivo, late watergrass (Echinochloa oryzicola); details: 320 g/ha applied herbicide
Method in brief: (§1)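 Alluvial soil was flooded to 4 cm depth, weed seeds were sown mixed and 2.5-leaf rice seedlings were transplanted. On sowing day, the compound's emulsion, diluted in water to a set dose, was applied to the water surface. Plants grew at 25–30 °C and were scored 0–5 after three weeks.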

Japanese bulrush [1] = assay: Test Example 1: herbicidal activity, application before weed generation under submerged conditions (Table 16, symbol B); assay type: in vivo, Japanese bulrush (Schoenoplectus juncoides); details: 320 g/ha applied herbicide
Method in brief: as §1

Japanese bulrush [2] = assay: Test Example 2: herbicidal activity, application during weed generation under submerged conditions (Table 17, symbol B); assay type: in vivo, Japanese bulrush (Schoenoplectus juncoides); details: AAH 320 g/ha; application during weed generation, submerged conditions
Method in brief: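 In this pot test, flooded alluvial soil (water depth 4 cm) holds all three species sown as a mixture. Once seedlings have one to two leaves, the compound's emulsion, thinned with water to the intended dose, is poured on the water; grading follows after three weeks on the earlier criteria.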

barnyard grass [3] = assay: Test Example 3: herbicidal effect by foliage application, Wagner pot (Table 18, symbol H); assay type: in vivo, barnyard grass (Echinochloa crus-galli); details: 320 g/ha
Method in brief: (§2)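 Plants were sown in alluvial soil held under 0.1–0.5 cm standing water and grown 14 days in a greenhouse at 25–30 °C. An emulsifiable formulation, water-diluted to the set dose, was then sprayed onto the foliage, and effects were scored three weeks later using previously defined criteria.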

Chinese sprangletop = assay: Test Example 3: herbicidal effect by foliage application, Wagner pot (Table 18, symbol D); assay type: in vivo, chinese sprangletop (Leptochloa chinensis); details: 320 g/ha
Method in brief: as §2

southern crabgrass [4] = assay: Test Example 4: herbicidal effect by soil treatment (Table 19, symbol F); assay type: in vivo, southern crabgrass (Digitaria ciliaris); details: 320 g/ha
Method in brief: (§3)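 Applied as a water-diluted emulsion, the compound was sprayed onto soil covering newly sown seeds. Evaluation came three weeks after application, in a greenhouse held at 25° C. to 30° C.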

barnyard grass [5] = assay: Test Example 4: herbicidal effect by soil treatment (Table 19, symbol H); assay type: in vivo, barnyard grass (Echinochloa crus-galli); details: 320 g/ha
Method in brief: as §3

windgrass [6] = assay: Test Example 4: herbicidal effect by soil treatment (Table 19, symbol L); assay type: in vivo, windgrass (Apera spica-venti); details: 320 g/ha
Method in brief: as §3

velvetleaf [7] = assay: Test Example 4: herbicidal effect by soil treatment (Table 19, symbol M); assay type: in vivo, velvetleaf (Abutilon theophrasti); details: 320 g/ha
Method in brief: as §3

lambsquarters [8] = assay: Test Example 4: herbicidal effect by soil treatment (Table 19, symbol O); assay type: in vivo, lambsquarters (Chenopodium album); details: 320 g/ha
Method in brief: as §3

southern crabgrass [9] = assay: Test Example 5: herbicidal effect by foliage application, plastic box (Table 20, symbol F); assay type: in vivo, southern crabgrass (Digitaria ciliaris); details: foliage application, 320 g/ha, evaluated three weeks after application
Method in brief: (§4)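 Sow seeds spot-wise in sterilized diluvial soil; cover with ~1.5 cm soil. Grow 14 days in greenhouse, 25° C. to 30° C. Spray foliage with emulsion diluted to predetermined amount. Rate effect after 3 weeks.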

wild oat = assay: Test Example 5: herbicidal effect by foliage application, plastic box (Table 20, symbol I); assay type: in vivo, wild oat (Avena fatua); details: foliage application, 320 g/ha, evaluated three weeks after application
Method in brief: as §4

Italian ryegrass = assay: Test Example 5: herbicidal effect by foliage application, plastic box (Table 20, symbol K); assay type: in vivo, Italian ryegrass (Lolium multiflorum); details: foliage application, 320 g/ha, evaluated three weeks after application
Method in brief: as §4

windgrass [10] = assay: Test Example 5: herbicidal effect by foliage application, plastic box (Table 20, symbol L); assay type: in vivo, windgrass (Apera spica-venti); details: foliage application, 320 g/ha, evaluated three weeks after application
Method in brief: as §4

velvetleaf [11] = assay: Test Example 5: herbicidal effect by foliage application, plastic box (Table 20, symbol M); assay type: in vivo, velvetleaf (Abutilon theophrasti); details: foliage application, 320 g/ha, evaluated three weeks after application
Method in brief: as §4

lambsquarters [12] = assay: Test Example 5: herbicidal effect by foliage application, plastic box (Table 20, symbol O); assay type: in vivo, lambsquarters (Chenopodium album); details: foliage application, 320 g/ha, evaluated three weeks after application
Method in brief: as §4

persian speedwell = assay: Test Example 5: herbicidal effect by foliage application, plastic box (Table 20, symbol R); assay type: in vivo, Persian speedwell (Veronica persica); details: foliage application, 320 g/ha, evaluated three weeks after application
Method in brief: as §4

What does the source list for `Cc1nn(C)c(=O)c(-c2c(-c3ccc(OCc4ccccc4)cc3)sc3ccc(F)cc23)c1O` [2-062]?
Herbicidal effect on A: late watergrass (grade 0-5) (late watergrass): 4 (Herbicidal rate of 70% or more and less than 90%); Herbicidal effect on B: Japanese bulrush (grade 0-5) (Japanese bulrush [1]): 4 (Herbicidal rate of 70% or more and less than 90%); herbicidal effect rating, B: Japanese bulrush (Japanese bulrush [2]): 3 (Herbicidal rate of 40% or more and less than 70%); herbicidal effect on H (barnyard grass), rating 0-5 (barnyard grass [3]): 5 (Herbicidal rate of 90% or more (almost completely withered)); herbicidal effect on D (Chinese sprangletop), rating 0-5 (Chinese sprangletop): 5 (Herbicidal rate of 90% or more (almost completely withered)); herbicidal effect rating, F: southern crabgrass (southern crabgrass [4]): 1 (Herbicidal rate of 5% or more and less than 20%); herbicidal effect rating, H: barnyard grass (barnyard grass [5]): 0 (Herbicidal rate of 5% or less (almost no effect)); herbicidal effect rating, L: windgrass (windgrass [6]): 0 (Herbicidal rate of 5% or less (almost no effect)); herbicidal effect rating, M: velvetleaf (velvetleaf [7]): 1 (Herbicidal rate of 5% or more and less than 20%); herbicidal effect rating, O: lambsquarters (lambsquarters [8]): 3 (Herbicidal rate of 40% or more and less than 70%); herbicidal effect on F: southern crabgrass (southern crabgrass [9]): 3 (Herbicidal rate of 40% or more and less than 70%); herbicidal effect on I: wild oat (wild oat): 0 (Herbicidal rate of 5% or less (almost no effect)); herbicidal effect on K: Italian ryegrass (Italian ryegrass): 1 (Herbicidal rate of 5% or more and less than 20%); herbicidal effect on L: windgrass (windgrass [10]): 4 (Herbicidal rate of 70% or more and less than 90%); herbicidal effect on M: velvetleaf (velvetleaf [11]): 3 (Herbicidal rate of 40% or more and less than 70%); herbicidal effect on O: lambsquarters (lambsquarters [12]): 5 (Herbicidal rate of 90% or more (almost completely withered)); herbicidal effect on R: persian speedwell (persian speedwell): 5 (Herbicidal rate of 90% or more (almost completely withered))

For `CCCC(=O)Oc1c(C)nn(C)c(=O)c1-c1c(-c2ccc(OC)c(F)c2)sc2ccc(F)cc12` [2-087], which “Herbicidal effect on A: late watergrass (grade 0-5)” value (late watergrass) is on record?
Its value is 5 (Herbicidal rate of 90% or more (almost completely withered)).

What about the “Herbicidal effect on B: Japanese bulrush (grade 0-5)” value (Japanese bulrush [1]) of the same compound?
The value was 4 (Herbicidal rate of 70% or more and less than 90%).

And the “herbicidal effect rating, B: Japanese bulrush” value (Japanese bulrush [2])?
Its value is 2 (Herbicidal rate of 20% or more and less than 40%).

What about the “herbicidal effect on H (barnyard grass), rating 0-5” value (barnyard grass [3]) of the same compound?
Its value is 3 (Herbicidal rate of 40% or more and less than 70%).

What about the “herbicidal effect on D (Chinese sprangletop), rating 0-5” value (Chinese sprangletop) of the same compound?
The value was 2 (Herbicidal rate of 20% or more and less than 40%).

And the “herbicidal effect rating, F: southern crabgrass” value (southern crabgrass [4])?
The value was 0 (Herbicidal rate of 5% or less (almost no effect)).

What about the “herbicidal effect rating, H: barnyard grass” value (barnyard grass [5]) of the same compound?
The value was 0 (Herbicidal rate of 5% or less (almost no effect)).

What about the “herbicidal effect rating, L: windgrass” value (windgrass [6]) of the same compound?
Its value is 0 (Herbicidal rate of 5% or less (almost no effect)).

What about the “herbicidal effect rating, M: velvetleaf” value (velvetleaf [7]) of the same compound?
Its value is 3 (Herbicidal rate of 40% or more and less than 70%).

What about the “herbicidal effect rating, O: lambsquarters” value (lambsquarters [8]) of the same compound?
Its value is 5 (Herbicidal rate of 90% or more (almost completely withered)).

What about the “herbicidal effect on F: southern crabgrass” value (southern crabgrass [9]) of the same compound?
The value was 0 (Herbicidal rate of 5% or less (almost no effect)).

And the “herbicidal effect on I: wild oat” value (wild oat)?
Its value is 0 (Herbicidal rate of 5% or less (almost no effect)).

And the “herbicidal effect on K: Italian ryegrass” value (Italian ryegrass)?
The value was 1 (Herbicidal rate of 5% or more and less than 20%).

What about the “herbicidal effect on L: windgrass” value (windgrass [10]) of the same compound?
The value was 0 (Herbicidal rate of 5% or less (almost no effect)).

And the “herbicidal effect on M: velvetleaf” value (velvetleaf [11])?
The value was 5 (Herbicidal rate of 90% or more (almost completely withered)).

And the “herbicidal effect on O: lambsquarters” value (lambsquarters [12])?
The value was 4 (Herbicidal rate of 70% or more and less than 90%).

What about the “herbicidal effect on R: persian speedwell” value (persian speedwell) of the same compound?
Its value is 5 (Herbicidal rate of 90% or more (almost completely withered)).

`COc1ccc(-c2sc3ccc(F)cc3c2-c2c(O)c(C)nn(C)c2=O)cc1OC` [2-088] was tested. Which “Herbicidal effect on A: late watergrass (grade 0-5)” value (late watergrass) did it give?
The value was 3 (Herbicidal rate of 40% or more and less than 70%).

And the “Herbicidal effect on B: Japanese bulrush (grade 0-5)” value (Japanese bulrush [1])?
The value was 2 (Herbicidal rate of 20% or more and less than 40%).

And the “herbicidal effect rating, B: Japanese bulrush” value (Japanese bulrush [2])?
The value was 0 (Herbicidal rate of 5% or less (almost no effect)).

And the “herbicidal effect on H (barnyard grass), rating 0-5” value (barnyard grass [3])?
The value was 5 (Herbicidal rate of 90% or more (almost completely withered)).

And the “herbicidal effect on D (Chinese sprangletop), rating 0-5” value (Chinese sprangletop)?
The value was 3 (Herbicidal rate of 40% or more and less than 70%).

What about the “herbicidal effect rating, F: southern crabgrass” value (southern crabgrass [4]) of the same compound?
Its value is 1 (Herbicidal rate of 5% or more and less than 20%).

And the “herbicidal effect rating, H: barnyard grass” value (barnyard grass [5])?
The value was 4 (Herbicidal rate of 70% or more and less than 90%).

And the “herbicidal effect rating, L: windgrass” value (windgrass [6])?
Its value is 0 (Herbicidal rate of 5% or less (almost no effect)).

And the “herbicidal effect rating, M: velvetleaf” value (velvetleaf [7])?
Its value is 2 (Herbicidal rate of 20% or more and less than 40%).

And the “herbicidal effect rating, O: lambsquarters” value (lambsquarters [8])?
The value was 4 (Herbicidal rate of 70% or more and less than 90%).

What about the “herbicidal effect on F: southern crabgrass” value (southern crabgrass [9]) of the same compound?
Its value is 3 (Herbicidal rate of 40% or more and less than 70%).

And the “herbicidal effect on I: wild oat” value (wild oat)?
Its value is 0 (Herbicidal rate of 5% or less (almost no effect)).

What about the “herbicidal effect on K: Italian ryegrass” value (Italian ryegrass) of the same compound?
The value was 4 (Herbicidal rate of 70% or more and less than 90%).

And the “herbicidal effect on L: windgrass” value (windgrass [10])?
Its value is 0 (Herbicidal rate of 5% or less (almost no effect)).

And the “herbicidal effect on M: velvetleaf” value (velvetleaf [11])?
The value was 5 (Herbicidal rate of 90% or more (almost completely withered)).

What about the “herbicidal effect on O: lambsquarters” value (lambsquarters [12]) of the same compound?
Its value is 4 (Herbicidal rate of 70% or more and less than 90%).

And the “herbicidal effect on R: persian speedwell” value (persian speedwell)?
Its value is 5 (Herbicidal rate of 90% or more (almost completely withered)).

Which results are given for `CCCC(=O)Oc1c(C)nn(C)c(=O)c1-c1c(-c2ccc(OC)c(OC)c2)sc2ccc(F)cc12` [2-089]?
Herbicidal effect on A: late watergrass (grade 0-5) (late watergrass): 5 (Herbicidal rate of 90% or more (almost completely withered)); Herbicidal effect on B: Japanese bulrush (grade 0-5) (Japanese bulrush [1]): 4 (Herbicidal rate of 70% or more and less than 90%); herbicidal effect rating, B: Japanese bulrush (Japanese bulrush [2]): 3 (Herbicidal rate of 40% or more and less than 70%); herbicidal effect on H (barnyard grass), rating 0-5 (barnyard grass [3]): 4 (Herbicidal rate of 70% or more and less than 90%); herbicidal effect on D (Chinese sprangletop), rating 0-5 (Chinese sprangletop): 3 (Herbicidal rate of 40% or more and less than 70%); herbicidal effect rating, F: southern crabgrass (southern crabgrass [4]): 4 (Herbicidal rate of 70% or more and less than 90%); herbicidal effect rating, H: barnyard grass (barnyard grass [5]): 4 (Herbicidal rate of 70% or more and less than 90%); herbicidal effect rating, L: windgrass (windgrass [6]): 0 (Herbicidal rate of 5% or less (almost no effect)); herbicidal effect rating, M: velvetleaf (velvetleaf [7]): 4 (Herbicidal rate of 70% or more and less than 90%); herbicidal effect rating, O: lambsquarters (lambsquarters [8]): 5 (Herbicidal rate of 90% or more (almost completely withered)); herbicidal effect on F: southern crabgrass (southern crabgrass [9]): 3 (Herbicidal rate of 40% or more and less than 70%); herbicidal effect on I: wild oat (wild oat): 0 (Herbicidal rate of 5% or less (almost no effect)); herbicidal effect on K: Italian ryegrass (Italian ryegrass): 4 (Herbicidal rate of 70% or more and less than 90%); herbicidal effect on L: windgrass (windgrass [10]): 0 (Herbicidal rate of 5% or less (almost no effect)); herbicidal effect on M: velvetleaf (velvetleaf [11]): 5 (Herbicidal rate of 90% or more (almost completely withered)); herbicidal effect on O: lambsquarters (lambsquarters [12]): 4 (Herbicidal rate of 70% or more and less than 90%); herbicidal effect on R: persian speedwell (persian speedwell): 5 (Herbicidal rate of 90% or more (almost completely withered))
